According to patent US20240376097A1, “BCL-2 Inhibitor” (BeiGene Ltd., priority 2020, published 2024):
Read-outs that look alike come from different tables or passages of the source.

Tests used:
[1] = target: recombinant human Bcl-2 D103Y protein (Homo sapiens (Human), UniProt P10415, D103Y); test: Bcl-2-D103Y Biochemical Assay (TR-FRET); assay type: binding; conditions: for IC50: TR-FRET, FITC labeled Bak peptide; for ratio of Bcl-2 D103Y/Bcl-2 wt, compared with F91b in WO2019210828: comparison in words; for Ratio of Bcl-2 D103Y/Bcl-2 WT: ratio of IC50
Chain of recombinant human Bcl-2 D103Y protein (P10415 whole entry D103Y): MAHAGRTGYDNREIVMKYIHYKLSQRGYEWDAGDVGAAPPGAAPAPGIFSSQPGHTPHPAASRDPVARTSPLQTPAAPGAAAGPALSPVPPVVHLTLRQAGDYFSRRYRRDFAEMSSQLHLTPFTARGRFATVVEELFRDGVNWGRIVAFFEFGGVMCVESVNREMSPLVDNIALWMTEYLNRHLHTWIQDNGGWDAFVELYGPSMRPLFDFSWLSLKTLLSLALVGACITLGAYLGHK
Method in brief: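 Recombinant human Bcl-2 D103Y binding to its ligand measured by TR-FRET (ex 337 nm, em 490/520 nm) with increasing compound concentrations. Percent inhibition from the 490/520 nm ratio; IC50 from four-parameter logistic fit.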

[2] = test system: RS4;11 (BCL-2 dependent acute lymphoblastic leukemia cell line); test: RS4;11 Cell Proliferation Assay; assay type: cell-based; conditions: Homo sapiens, RS4;11 cells, read-out: Cellular proliferation assay (IC50, nM) RS4
Method in brief: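 RS4;11 cells, 50,000 per well in RPMI-1640 with 10% FBS, treated 48 h at 37 °C with a 10-point dilution series topping at 1 μM. Viability read by CellTiter-Glo ATP luminescence; mean IC50 reported.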

[3] = target: Recombinant human Bcl-2 protein (Homo sapiens (Human), UniProt P10415); test: Bcl-2 TR-FRET Assay; assay type: binding
Chain of Recombinant human Bcl-2 protein (P10415 whole entry): as the sequence (P10415 whole entry D103Y) above, with Y103D counted along it
Method in brief: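 0.05 nM recombinant Bcl-2 preincubated 0.5 h at room temperature with 10-point compound dilutions (top final 1, 0.1, 0.02 or 0.01 uM) in pH 7.5 phosphate buffer. FITC-Bak peptide (0.5 nM) and anti-6His Tb cryptate then added for 1 h. TR-FRET read; IC50 from four-parameter logistic fit.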

[4] = Bcl-2 wild type, TR-FRET, read-out: Biochemical assay (IC50, nM) Bcl-2 WT
[5] = wild type Bcl-2, unit inferred, read-out: Bcl-2 WT

Compound | IC50 [1] | ratio of Bcl-2 D103Y/Bcl-2 wt, compared with F91b in WO2019210828 [1] | Ratio of Bcl-2 D103Y/Bcl-2 WT [1] | IC50 [2] | IC50 [3, 4] | IC50 [3, 5]
COc1ccc(CN2CCN(C3CC4(CCN(c5ccc(C(=O)NS(=O)(=O)c6ccc(NC[C@H]7CC[C@](C)(O)CC7)c([N+](=O)[O-])c6)c(Oc6cnc7[nH]cc(F)c7c6)c5)CC4)C3)[C@H](c3ccccc3C(C)C)C2)cc1OC [Example 127, 4-(2-((R)-4-(3,4-dimethoxybenzyl)-2-(2-isopropylphenyl)piperazin-1-yl)-7-azaspiro[3.5]nonan-7-yl)-2-((3-fluoro-1H-pyrrolo[2,3-b]pyridin-5-yl)oxy)-N-((4-((((1r,4r)-4-hydroxy-4-methylcyclohexyl)methyl)amino)-3-nitrophenyl)sulfonyl)benzamide] | 0.11 nM | significantly lower | 1 | 0.167 nM | 0.071 nM | 0.1 nM
COc1ccc(CN2CCN(C3CC4(C3)CN(c3ccc(C(=O)NS(=O)(=O)c5ccc(NC[C@H]6CC[C@](C)(O)CC6)c([N+](=O)[O-])c5)c(Oc5cnc6[nH]cc(F)c6c5)c3)C4)[C@H](c3ccccc3C(C)C)C2)cc1OC [Example 141a, 4-(6-((R)-4-(3,4-dimethoxybenzyl)-2-(2-isopropylphenyl)piperazin-1-yl)-2-azaspiro[3.3]heptan-2-yl)-2-((3-fluoro-1H-pyrrolo[2,3-b]pyridin-5-yl)oxy)-N-((4-((((1r,4r)-4-hydroxy-4-methylcyclohexyl)methyl)amino)-3-nitrophenyl)sulfonyl)benzamide] | 0.072 nM | significantly lower | 1.3 | 0.166 nM | 0.054 nM | 0.054 nM
COc1ccc(CN2CCN(C3CC4(C3)CN(c3ccc(C(=O)NS(=O)(=O)c5ccc(NC[C@H]6CC[C@](C)(O)CC6)c([N+](=O)[O-])c5)c(Oc5cnc6[nH]ccc6c5)c3)C4)[C@H](c3ccccc3C(C)C)C2)cc1OC [Example 145, 2-((1H-pyrrolo[2,3-b]pyridin-5-yl)oxy)-4-(6-((R)-4-(3,4-dimethoxybenzyl)-2-(2-isopropylphenyl)piperazin-1-yl)-2-azaspiro[3.3]heptan-2-yl)-N-((4-((((1r,4r)-4-hydroxy-4-methylcyclohexyl)methyl)amino)-3-nitrophenyl)sulfonyl)benzamide] | 0.045 nM | significantly lower | 1.6 | 0.104 nM | 0.028 nM | 0.028 nM
COc1ccc(CN2CCN(C3CC4(C3)CN(c3ccc(C(=O)NS(=O)(=O)c5ccc(NC[C@H]6CC[C@](C)(O)CC6)c([N+](=O)[O-])c5)c(Oc5cnc6[nH]ccc6c5)c3)C4)[C@H](c3ccccc3C(C)C)C2)cc1 [Example 147, 2-((1H-pyrrolo[2,3-b]pyridin-5-yl)oxy)-N-((4-((((1r,4r)-4-hydroxy-4-methylcyclohexyl)methyl)amino)-3-nitrophenyl)sulfonyl)-4-(6-((R)-2-(2-isopropylphenyl)-4-(4-methoxybenzyl)piperazin-1-yl)-2-azaspiro[3.3]heptan-2-yl) benzamide] | 0.086 nM |  | 1.6 | 0.14 nM | 0.054 nM | 0.054 nM
[2H]C([2H])([2H])Oc1ccc(CN2CCN(C3CC4(CCN(c5ccc(C(=O)NS(=O)(=O)c6ccc(NC[C@H]7CC[C@](C)(O)CC7)c([N+](=O)[O-])c6)c(Oc6cnc7[nH]cc(F)c7c6)c5)CC4)C3)[C@H](c3ccccc3C(C)C)C2)cc1OC([2H])([2H])[2H] [Example 198, 4-(2-((R)-4-(3,4-bis(methoxy-d3)benzyl)-2-(2-isopropylphenyl)piperazin-1-yl)-7-azaspiro[3.5]nonan-7-yl)-2-((3-fluoro-1H-pyrrolo[2,3-b]pyridin-5-yl)oxy)-N-((4-((((1r,4r)-4-hydroxy-4-methylcyclohexyl)methyl)amino)-3-nitrophenyl)sulfonyl)benzamide] | 0.08 nM |  | 1.1 | 0.12 nM | 0.072 nM | 0.072 nM
